From US20180116933A1, “ANTI-OXIDATIVE OR ANTI-AGING COMPOSITION CONTAINING 5-ADAMANTAN-1-YL-N-(2,4-DIHYDROXYBENZYL)-2,4-DIMETHOXYBENZAMIDE” (Amorepacific Corporation, priority 2015, published 2018) come the findings set out here.

One data set concerns Raw 264.7 cells. In words: Cytotoxicity test (MTT method) in Raw 264.7 cells. The format is cell-based. The method, then: RAW264.7 cells (obtained from ATCC (Rockville, Md., USA) as a murine macrophage cell line) were incubated in RPMI 1640 medium supplemented with FBS (10% heat-inactivated fetal bovine serum; Gibco, Grand Island, N.Y., USA), glutamine, antibiotics (penicillin and streptomycin) at 37° C. and 5% CO2.
In all experiments, cells were detached with a cell scraper. When cells were incubated at a concentration of 2×10^6 cells/mL in the experiment, the percentage of dead cells was 1% or less (confirmed by a trypan blue dye exclusion method).
In order to determine the appropriate concentration of extract treatment for anti-inflammatory evaluation of 5-adamantan-1-yl-N-(2,4-dihydroxybenzyl)-2,4-dimethoxybenzamide, the cytotoxicity of 5-adamantan-1-yl-N-(2,4-dihydroxybenzyl)-2,4-dimethoxybenzamide at each concentration was evaluated in the cells used in the experiments.
Raw 264.7 cells in the subculture were plated on a well plate at a density of […]. After 18 hours of cell incubation, the cells were subjected to a sample treatment so that the concentration of 5-adamantan-1-yl-N-(2,4-dihydroxybenzyl)-2,4-dimethoxybenzamide (referred to as ‘AP736’ in FIG. 1) was from 0 to 30 μM. The cells were incubated for 8 hours or 24 hours in an incubator. The cytotoxic effect was evaluated by the conventional MTT method. Before the last 3 hours of incubation, 10 μL of MTT {3-[4,5-dimethylthiazol-2-yl]-2,5-diphenyltetrazolium bromide} solution (10 mg/mL in phosphate-buffered saline, pH 7.4) was added to each well. To each well, 15% SDS (sodium dodecyl sulfate) was added to terminate the reaction, and the formazan crystal was then dissolved therein. Thereafter, the absorbance at 570 nm was measured on a microplate reader.
For orientation: Tetrazolium dyes change colour on reduction, which living cells bring about.

The nature of data set [1]: DPPH free radical scavenging evaluation. Type of data set: biochemical. The following applies: 0 to 200 μg/ml, DPPH 0.2 mM in methanol, 30 minutes, absorbance 517 nm (FIG. 2). How it is done: The DPPH free radical scavenging evaluation method was performed as follows.
In 5-adamantan-1-yl-N-(2,4-dihydroxybenzyl)-2,4-dimethoxybenzamide (referred to as ‘AP736’ in FIG. 2) prepared in Example, a reaction product adjusted to a concentration of from 0 to 200 μg/ml and a methanol solution of DPPH (0.2 mM) were incubated for 30 minutes. The absorbance of the solution was measured at 517 nm. The scavenging ability was expressed by the value obtained by comparing the absorbance of the solution to that (100%) of the control DPPH solution in % as presented in the following Mathematical Formula 1.
For orientation: Loss of DPPH colour is used to gauge radical scavenging.

The subject of data set [2] is matrix metalloprotease-1 (MMP-1). Put plainly: MMP-1 assay: UV-induced MMP-1 expression in HS68 human fibroblasts (MMP-1 ELISA kit). Type of data set: cell-based. The note with it: UV-irradiated HS68 cells, 0.1, 0.5, and 1 μM, 48 hours (FIG. 3). How it is done:
In order to confirm the anti-aging effect of the sample, an experiment to see how much 5-adamantan-1-yl-N-(2,4-dihydroxybenzyl)-2,4-dimethoxybenzamide can inhibit the expression of matrix metalloprotease-1 (MMP-1) to be induced by ultraviolet (UV) rays was performed.
Human fibroblasts (HS68 cells, purchased from ATCC (Rockville, Md., USA)) were plated on a well plate at a density of 7.5×10^4 cells/well, then incubated in DMEM (Dulbecco's Modified Eagle's Medium) containing 10% FBS for 24 hours, then washed with PBS (phosphate-buffered saline), then 0.5 ml of PBS was added thereto, and the expression of MMP-1 was induced by irradiating the resultant incubated cells with ultraviolet rays. After changing to Serum-Free DMEM, the resultant was treated with 5-adamantan-1-yl-N-(2,4-dihydroxybenzyl)-2,4-dimethoxybenzamide (referred to as ‘AP736’ in FIG. 3) prepared in Example. The amount of the supernatant obtained after incubation for a certain period of time (48 hours) was measured by using an MMP-1 ELISA kit.
In other words, HS68 cells of human dermal fibroblasts were treated with ultraviolet rays to increase the expression of MMP-1, and the resulting HS68 cells were then treated with each sample to see whether the expression of MMP-1 decreased. The experimental results are illustrated in FIG. 3. […]
(In an ELISA, binding on a coated surface is turned into a signal by an enzyme label.)

For the molecule `COc1cc(OC)c(C23CC4CC(CC(C4)C2)C3)cc1C(=O)NCc1ccc(O)cc1O` [AP736, 5-adamantan-1-yl-N-(2,4-dihydroxybenzyl)-2,4-dimethoxybenzamide], the cell viability entry in the data set with Raw 264.7 cells (10 μM, 8 hours) is “about 100%”; in the data set on Raw 264.7 cells (10 μM, 24 hours), “about 100%”; with Raw 264.7 cells (20 μM, 8 hours), “about 100%”; in the data set with Raw 264.7 cells (20 μM, 24 hours), “about 100%”; in the data set with Raw 264.7 cells (30 μM, 24 hours), “about 80%”. Besides, in data set [1], the “percentage of DPPH radical scavenging activity” value is recorded as “increases”. Also, in data set [2], the “expression of MMP-1” value was “tended to decrease”.
